Source: PubChem BioAssay (NCI)
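Cells were grown in 96-well plates and exposed to each compound for 48 hours at five concentrations; endpoints were interpolated linearly between bracketing concentrations, or set to the highest concentration if not reached. GI50: concentration for 50% inhibition of growth. TGI denotes the concentration required for complete inhibition of growth.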

Tests used:
Assay in all cases: NCI tumour cell line growth inhibition, 48 h
MDA-MB-231 breast = test system: MDA-MB-231 breast
PC-3 prostate = test system: PC-3 prostate
MDA-N = test system: MDA-N
786-0 renal = test system: 786-0 renal
HOP-18 NSCLC = test system: HOP-18 NSCLC
M19-MEL melanoma = test system: M19-MEL melanoma
LXFL 529 NSCLC = test system: LXFL 529 NSCLC
DMS 114 small cell lung = test system: DMS 114 small cell lung
XF 498 CNS = test system: XF 498 CNS
SNB-78 CNS = test system: SNB-78 CNS
DLD-1 colon = test system: DLD-1 colon
SN12K1 renal = test system: SN12K1 renal
P388/ADR leukemia = test system: P388/ADR leukemia
P388 leukemia = test system: P388 leukemia

| SMILES | TGI (MDA-MB-231 breast) | TGI (PC-3 prostate) | TGI (MDA-N) | TGI (786-0 renal) | TGI (HOP-18 NSCLC) | TGI (M19-MEL melanoma) | TGI (LXFL 529 NSCLC) | TGI (DMS 114 small cell lung) | TGI (XF 498 CNS) | TGI (SNB-78 CNS) | TGI (DLD-1 colon) | GI50 (MDA-MB-231 breast) | TGI (SN12K1 renal) | TGI (P388/ADR leukemia) | TGI (P388 leukemia) |
| --- | --- | --- | --- | --- | --- | --- | --- | --- | --- | --- | --- | --- | --- | --- | --- |
| OCCNCCN1CCN(CCCN2c3ccccc3Sc3ccc(C(F)(F)F)cc32)CC1 | 35.5 µM | 62.1 µM | 33.7 µM | 31 µM |  |  |  |  |  |  |  |  |  |  |  |
| Cc1ccc(C2OC(COCc3ccc(Cl)cc3)C(OCc3ccc(Cl)cc3)C2O)cc1 (configuration not stated) |  |  |  |  | > 100 µM | 38.1 µM | 58.5 µM | 22.2 µM | 22.6 µM | 29.6 µM | 34.1 µM |  |  |  |  |
| CCCc1c(-c2ccccc2)[nH]c2ccccc2c1=O | > 100 µM | > 100 µM | > 100 µM |  |  |  |  |  |  |  |  |  |  |  |  |
| CO/N=C(/C)c1ccc(NC(=O)CSc2nnc(-c3ccncc3)n2-c2ccccc2)cc1 | 8.79 µM |  |  |  |  |  |  |  |  |  |  | 2.57 µM |  |  |  |
| NCCSS(=O)(=O)CCN | > 100 µM | > 100 µM | > 100 µM | > 100 µM |  |  |  |  |  |  |  |  |  |  |  |
| CN(C)CCCN1c2ccccc2Sc2ccc3ccccc3c21 | 13.7 µM | 14.6 µM | 15.1 µM | 23.4 µM |  |  |  |  |  |  |  |  |  |  |  |
| C=CC1(NC(=O)c2ccccc2)CCC(C(C)(C)C)CC1 (configuration not stated) |  |  |  |  | > 95.6 µM | 84.4 µM |  | > 90.7 µM | > 70.6 µM | > 100 µM | > 100 µM |  | > 96.7 µM | > 77.4 µM | 38.4 µM |
| O=C1C(Cl)=C(Nc2ccc(S(=O)(=O)O)cc2)C(=O)c2ccccc21 | > 100 µM | 69.5 µM |  | 84.6 µM |  |  |  |  |  |  |  |  |  |  |  |
| O=C(O)c1cc2c(ncc3c(=O)n(-c4ccccc4)[nH]c32)s1 |  |  |  |  | > 100 µM | > 100 µM | > 100 µM | > 100 µM | > 100 µM |  | > 100 µM |  |  |  |  |
| Cn1c(=O)c2[nH]c(CCNC(=O)c3ccccc3)nc2n(C)c1=O | > 100 µM | > 100 µM | > 100 µM | > 100 µM |  |  |  |  |  |  |  |  |  |  |  |
| O=C1C=CC2(C=C1)O[C@H](Cc1ccccc1)[C@@H](Cc1ccccc1)O2 | 5.44 µM | 3.34 µM | 0.66 µM | […] |  |  |  |  |  |  |  |  |  |  |  |
| CC(=O)Oc1cc2c(cc1OC(C)=O)OCC(c1ccccc1)C2 (configuration not stated) |  |  |  |  | 63.2 µM | 45.7 µM |  | 32.3 µM | 25.3 µM | 111 µM | 27.4 µM |  | 38.6 µM | 11.7 µM | 9.97 µM |
| O=C1OC2(CC1C1(O)C3CC4CC(C3)CC1C4)C1CC3CC(C1)CC2C3 (configuration not stated) |  |  |  |  | 35.8 µM | > 100 µM | > 100 µM | > 100 µM | > 100 µM | > 100 µM | > 100 µM |  |  |  |  |
| N#C[C@H](OC1OC(COC2OC(CO)C(O)C(O)C2O)C(O)C(O)C1O)c1ccccc1 (some centres not stated) |  |  |  |  | > 250 µM | > 250 µM |  | > 250 µM | > 25 µM | > 250 µM | > 250 µM |  | > 250 µM | > 158 µM | > 250 µM |
| COc1nc(=O)n(COC(CO)CN2C(=O)c3ccccc3C2=O)cc1Cc1cccc(OCc2ccccc2)c1 (configuration not stated) |  |  |  |  | 72.5 µM | 45.2 µM | > 100 µM | 59.1 µM |  | > 100 µM | > 100 µM |  |  |  |  |
| O=C(Nc1nc2ccc([N+](=O)[O-])cc2s1)C(=O)C(C(=O)c1ccccc1F)C1OC(=O)c2ccccc21 (configuration not stated) |  |  |  |  |  | > 100 µM | > 100 µM | 87.3 µM | > 100 µM | > 100 µM | > 100 µM |  |  |  |  |
| O=C(CCl)NNC1=Nc2ccc(Cl)cc2SC1 |  |  |  |  | 3.36 µM | 5.46 µM |  | 3.86 µM | 3.92 µM | 4.51 µM | 3.6 µM |  | 7.94 µM | 3.52 µM | 1.07 µM |
| Nc1ccn(C2C=C(CO)C(O)C2O)c(=O)c1 (configuration not stated) |  |  |  |  | > 625 µM | > 625 µM |  | > 625 µM |  | > 625 µM | > 62.5 µM |  | > 625 µM |  |  |
